Test results from US9776995B2, “Bicyclic sulfonamide compounds as sodium channel inhibitors” (AMGEN INC., priority 2013, dated 2017).

Experiments:
Nav 1.7 = Nav 1.7 (Homo sapiens (Human), UniProt Q15858); experiment: in-vitro Nav 1.7 PX data; type: cell-based; conditions: in-vitro PX
Nav 1.5 = Nav 1.5 (Homo sapiens (Human), UniProt Q14524); experiment: in-vitro Nav 1.5 PX data; conditions: read-out: Nav 1.5 PX IC50; in-vitro PX
Chain of Nav 1.5 (Q14524 whole entry): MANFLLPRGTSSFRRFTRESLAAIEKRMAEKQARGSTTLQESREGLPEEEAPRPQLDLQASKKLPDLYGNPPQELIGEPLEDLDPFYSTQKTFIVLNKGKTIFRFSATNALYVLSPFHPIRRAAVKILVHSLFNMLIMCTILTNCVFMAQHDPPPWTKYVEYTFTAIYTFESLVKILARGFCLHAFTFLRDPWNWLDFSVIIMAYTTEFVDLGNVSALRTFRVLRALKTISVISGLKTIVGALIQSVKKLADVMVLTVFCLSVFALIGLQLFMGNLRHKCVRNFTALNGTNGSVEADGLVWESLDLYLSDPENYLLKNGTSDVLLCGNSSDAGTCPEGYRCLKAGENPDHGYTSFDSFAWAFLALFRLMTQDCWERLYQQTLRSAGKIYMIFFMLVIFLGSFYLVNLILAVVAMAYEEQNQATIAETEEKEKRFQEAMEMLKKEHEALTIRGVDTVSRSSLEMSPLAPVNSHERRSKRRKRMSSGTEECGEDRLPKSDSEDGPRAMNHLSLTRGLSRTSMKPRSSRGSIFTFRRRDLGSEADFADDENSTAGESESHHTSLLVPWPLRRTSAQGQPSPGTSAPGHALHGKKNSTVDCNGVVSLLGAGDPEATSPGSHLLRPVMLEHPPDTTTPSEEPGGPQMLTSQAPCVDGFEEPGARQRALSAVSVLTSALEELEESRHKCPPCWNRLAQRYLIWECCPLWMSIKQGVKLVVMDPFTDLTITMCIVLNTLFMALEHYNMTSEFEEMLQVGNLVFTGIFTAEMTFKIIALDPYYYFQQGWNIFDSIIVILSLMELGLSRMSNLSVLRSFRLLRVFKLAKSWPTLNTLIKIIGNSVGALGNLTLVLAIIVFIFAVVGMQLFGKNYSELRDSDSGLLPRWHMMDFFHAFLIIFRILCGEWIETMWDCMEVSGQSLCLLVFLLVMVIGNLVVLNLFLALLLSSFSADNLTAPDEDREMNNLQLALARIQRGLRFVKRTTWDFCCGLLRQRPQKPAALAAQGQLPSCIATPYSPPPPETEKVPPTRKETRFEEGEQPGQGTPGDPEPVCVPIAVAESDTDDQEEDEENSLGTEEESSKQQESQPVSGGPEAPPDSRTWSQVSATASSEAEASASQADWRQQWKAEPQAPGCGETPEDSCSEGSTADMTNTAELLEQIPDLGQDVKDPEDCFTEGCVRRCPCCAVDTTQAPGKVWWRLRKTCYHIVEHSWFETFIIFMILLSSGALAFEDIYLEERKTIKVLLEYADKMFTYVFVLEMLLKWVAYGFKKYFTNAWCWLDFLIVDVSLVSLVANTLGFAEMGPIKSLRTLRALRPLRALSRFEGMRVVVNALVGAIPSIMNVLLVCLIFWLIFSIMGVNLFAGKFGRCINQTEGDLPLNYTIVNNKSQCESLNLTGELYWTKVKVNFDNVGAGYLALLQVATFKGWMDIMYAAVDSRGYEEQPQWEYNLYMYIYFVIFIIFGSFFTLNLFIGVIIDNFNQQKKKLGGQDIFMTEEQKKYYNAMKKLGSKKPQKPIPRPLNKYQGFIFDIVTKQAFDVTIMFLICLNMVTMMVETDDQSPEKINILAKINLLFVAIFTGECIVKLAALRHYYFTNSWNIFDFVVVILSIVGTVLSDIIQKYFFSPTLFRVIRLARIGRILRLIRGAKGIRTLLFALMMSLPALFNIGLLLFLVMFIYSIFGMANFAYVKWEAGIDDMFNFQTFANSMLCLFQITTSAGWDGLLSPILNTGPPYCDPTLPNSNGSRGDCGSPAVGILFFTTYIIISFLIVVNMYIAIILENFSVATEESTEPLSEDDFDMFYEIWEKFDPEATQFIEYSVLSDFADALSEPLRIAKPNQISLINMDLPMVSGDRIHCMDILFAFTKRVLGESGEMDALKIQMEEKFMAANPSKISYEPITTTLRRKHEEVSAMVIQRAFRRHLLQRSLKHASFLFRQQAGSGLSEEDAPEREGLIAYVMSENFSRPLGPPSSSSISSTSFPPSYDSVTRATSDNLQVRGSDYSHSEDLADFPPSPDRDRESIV

Chain of Nav 1.7 (Q15858 whole entry): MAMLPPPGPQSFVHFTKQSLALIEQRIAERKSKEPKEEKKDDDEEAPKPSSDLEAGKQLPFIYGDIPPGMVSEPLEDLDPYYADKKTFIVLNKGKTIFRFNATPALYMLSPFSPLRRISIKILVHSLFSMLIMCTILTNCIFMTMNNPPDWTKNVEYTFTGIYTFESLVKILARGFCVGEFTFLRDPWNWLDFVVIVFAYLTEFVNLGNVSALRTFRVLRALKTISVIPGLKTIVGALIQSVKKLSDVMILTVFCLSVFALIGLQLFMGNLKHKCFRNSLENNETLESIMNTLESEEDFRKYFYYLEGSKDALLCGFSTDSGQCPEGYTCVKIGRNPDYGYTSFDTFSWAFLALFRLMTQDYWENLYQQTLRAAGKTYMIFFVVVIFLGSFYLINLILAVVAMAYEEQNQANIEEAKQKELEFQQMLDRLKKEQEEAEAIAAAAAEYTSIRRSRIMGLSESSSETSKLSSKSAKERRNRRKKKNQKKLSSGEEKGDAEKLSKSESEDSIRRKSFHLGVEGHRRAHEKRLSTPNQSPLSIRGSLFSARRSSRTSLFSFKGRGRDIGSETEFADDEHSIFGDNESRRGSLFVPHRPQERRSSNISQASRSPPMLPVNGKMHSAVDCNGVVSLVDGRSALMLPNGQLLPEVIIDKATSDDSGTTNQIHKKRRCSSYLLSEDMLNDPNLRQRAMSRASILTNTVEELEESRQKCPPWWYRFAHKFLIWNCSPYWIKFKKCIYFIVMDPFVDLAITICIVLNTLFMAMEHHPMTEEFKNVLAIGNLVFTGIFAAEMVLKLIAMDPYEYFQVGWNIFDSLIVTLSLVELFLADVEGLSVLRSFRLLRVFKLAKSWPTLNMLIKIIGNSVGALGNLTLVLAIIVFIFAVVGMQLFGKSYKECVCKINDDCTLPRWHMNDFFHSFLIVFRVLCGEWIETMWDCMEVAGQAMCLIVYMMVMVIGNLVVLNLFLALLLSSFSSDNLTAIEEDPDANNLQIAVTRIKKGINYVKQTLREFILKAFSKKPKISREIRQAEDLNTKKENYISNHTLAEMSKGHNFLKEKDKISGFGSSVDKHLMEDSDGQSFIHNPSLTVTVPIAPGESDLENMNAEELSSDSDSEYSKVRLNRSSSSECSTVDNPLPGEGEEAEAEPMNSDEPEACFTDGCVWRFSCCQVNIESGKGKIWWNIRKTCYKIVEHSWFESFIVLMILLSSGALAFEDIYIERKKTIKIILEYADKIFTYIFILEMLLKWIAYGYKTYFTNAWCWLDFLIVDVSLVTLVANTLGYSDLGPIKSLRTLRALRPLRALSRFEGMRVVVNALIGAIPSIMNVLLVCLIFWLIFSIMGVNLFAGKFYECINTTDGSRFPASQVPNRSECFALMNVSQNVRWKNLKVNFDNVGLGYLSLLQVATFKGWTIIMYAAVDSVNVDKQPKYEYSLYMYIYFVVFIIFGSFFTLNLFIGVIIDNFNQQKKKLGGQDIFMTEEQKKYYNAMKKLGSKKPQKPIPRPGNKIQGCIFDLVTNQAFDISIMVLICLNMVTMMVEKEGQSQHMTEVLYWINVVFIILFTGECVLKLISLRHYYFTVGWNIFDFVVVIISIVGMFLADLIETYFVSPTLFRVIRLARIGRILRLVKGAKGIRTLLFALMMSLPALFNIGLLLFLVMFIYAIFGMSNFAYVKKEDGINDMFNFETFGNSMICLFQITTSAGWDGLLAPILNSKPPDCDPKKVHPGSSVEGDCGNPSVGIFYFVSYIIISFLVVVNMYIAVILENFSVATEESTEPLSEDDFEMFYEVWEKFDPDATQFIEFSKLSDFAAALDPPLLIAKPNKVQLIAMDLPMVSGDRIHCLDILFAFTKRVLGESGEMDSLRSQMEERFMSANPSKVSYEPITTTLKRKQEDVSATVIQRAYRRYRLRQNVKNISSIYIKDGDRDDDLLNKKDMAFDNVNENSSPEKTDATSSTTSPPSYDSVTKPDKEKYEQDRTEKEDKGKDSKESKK

SMILES | IC50 (Nav 1.7) [nM] | IC50 (Nav 1.5) [nM]
N#CCOc1cc(-c2cccc(F)c2)ccc1-c1nccc2cc(S(=O)(=O)Nc3ccon3)ccc12 [Example 231, 1-(3-(cyanomethoxy)-3′-fluoro-4-biphenylyl)-N-3-isoxazolyl-6-isoquinolinesulfonamide] | 140 | > 30000
COc1cc(-c2cc(F)cc(F)c2)c(Cl)cc1-c1nn(C)c(=O)c2cc(S(=O)(=O)Nc3ccon3)ccc12 [Example 233, 1-(2-chloro-3′,5′-difluoro-5-methoxy-4-biphenylyl)-N-3-isoxazolyl-3-methyl-4-oxo-3,4-dihydro-6-phthalazinesulfonamide] | 138 | > 30000
COc1nc(N2CC(F)(F)C2)c(Cl)cc1-c1nccc2cc(S(=O)(=O)Nc3nncs3)ccc12 [Example 236, 1-(5-chloro-6-(3,3-difluoro-1-azetidinyl)-2-methoxy-3-pyridinyl)-N-1,3,4-thiadiazol-2-yl-6-isoquinolinesulfonamide] | 382 | > 30000
COc1nc(N2CCC(F)(F)C2)c(Cl)cc1-c1nccc2cc(S(=O)(=O)Nc3nncs3)ccc12 [Example 237, 1-(5-chloro-6-(3,3-difluoro-1-pyrrolidinyl)-2-methoxy-3-pyridinyl)-N-1,3,4-thiadiazol-2-yl-6-isoquinolinesulfonamide] | 336 | > 30000
N#CCOc1cc(-c2cccc(F)c2)ccc1-c1nccc2cc(S(=O)(=O)Nc3nncs3)ccc12 [Example 238, 1-(3-(cyanomethoxy)-3′-fluoro-4-biphenylyl)-N-1,3,4-thiadiazol-2-yl-6-isoquinolinesulfonamide] | 144 | > 10000
COc1cc(-c2cccc(F)c2)c(Cl)cc1-c1ccnc2cc(S(=O)(=O)Nc3ccon3)ccc12 [Example 239, 4-(2-chloro-3′-fluoro-5-methoxy-4-biphenylyl)-N-3-isoxazolyl-7-quinolinesulfonamide] | 115 | 11200
COc1cc(-c2cccc(F)c2)c(Cl)cc1-c1ncnc2cc(S(=O)(=O)Nc3ncccn3)ccc12 [Example 243, 4-(2-chloro-3′-fluoro-5-methoxy-4-biphenylyl)-N-2-pyrimidinyl-7-quinazolinesulfonamide] | 80.3 | > 10000
COc1nc(N2CCC(F)(F)CC2)c(Cl)cc1-c1nccc2cc(S(=O)(=O)Nc3nncs3)ccc12 [Example 244, 1-(5-chloro-6-(4,4-difluoro-1-piperidinyl)-2-methoxy-3-pyridinyl)-N-1,3,4-thiadiazol-2-yl-6-isoquinolinesulfonamide] | 424 | > 30000

Compounds with a lower IC50 (Nav 1.7), results first:

IC50 (Nav 1.7) [nM] | SMILES | IC50 (Nav 1.5) [nM]
20.5 | COc1cc(-c2ccc(C)c(Cl)c2)c(C#N)cc1-c1nccc2cc(S(=O)(=O)Nc3nncs3)ccc12 [Example 229, 1-(3′-chloro-2-cyano-5-methoxy-4′-methyl-4-biphenylyl)-N-1,3,4-thiadiazol-2-yl-6-isoquinolinesulfonamide] | > 10000
12.7 | COc1cc(-c2ccc(F)c(C)c2)c(C#N)cc1-c1nccc2cc(S(=O)(=O)Nc3nncs3)ccc12 [Example 230, 1-(2-cyano-4′-fluoro-5-methoxy-3′-methyl-4-biphenylyl)-N-1,3,4-thiadiazol-2-yl-6-isoquinolinesulfonamide] | > 10000
47.1 | COc1cc(-c2cc(F)cc(F)c2)c(Cl)cc1-c1nn(C)c(=O)c2cc(S(=O)(=O)Nc3nncs3)ccc12 [Example 235, 1-(2-chloro-3′,5′-difluoro-5-methoxy-4-biphenylyl)-3-methyl-4-oxo-N-1,3,4-thiadiazol-2-yl-3,4-dihydro-6-phthalazinesulfonamide] | > 10000
69.1 | COc1cc(-c2cccc(F)c2)c(C#N)cc1-c1ncnc2cc(S(=O)(=O)Nc3nncs3)ccc12 [Example 241, 4-(2-cyano-3′-fluoro-5-methoxy-4-biphenylyl)-N-1,3,4-thiadiazol-2-yl-7-quinazolinesulfonamide] | > 10000
